We go through five compounds from ChEMBL document CHEMBL1130242, “3 Beta-(4-ethyl-3-iodophenyl)nortropane-2 beta-carboxylic acid methyl ester as a high-affinity selective ligand for the serotonin transporter” (J Med Chem, 1997).

Assay [1] addresses Norepinephrine transporter (Rattus norvegicus, UniProt Q9WTR4). Description: In vitro inhibitory activity against radioligand [3H]-[…] binding to norepinephrine transporter (NET) in rat cortical tissue.
The target in assay [2] is Monoamine transporters; Norepininephrine & dopamine (Rattus norvegicus) (UniProt P23977+Q9WTR4). Description: Selectivity ratio is IC50 value of NET to that of DAT. Format: protein assay.
For assay [3], the target named is Monoamine transporters; serotonin & dopamine (Rattus norvegicus) (UniProt P31652+P23977). The experiment in a line: Selectivity ratio is IC50 value of 5-HTT to that of DAT. It counts as protein assay.
Chain of Monoamine transporters; serotonin & dopamine (Rattus norvegicus) (P23977 whole entry, looked up): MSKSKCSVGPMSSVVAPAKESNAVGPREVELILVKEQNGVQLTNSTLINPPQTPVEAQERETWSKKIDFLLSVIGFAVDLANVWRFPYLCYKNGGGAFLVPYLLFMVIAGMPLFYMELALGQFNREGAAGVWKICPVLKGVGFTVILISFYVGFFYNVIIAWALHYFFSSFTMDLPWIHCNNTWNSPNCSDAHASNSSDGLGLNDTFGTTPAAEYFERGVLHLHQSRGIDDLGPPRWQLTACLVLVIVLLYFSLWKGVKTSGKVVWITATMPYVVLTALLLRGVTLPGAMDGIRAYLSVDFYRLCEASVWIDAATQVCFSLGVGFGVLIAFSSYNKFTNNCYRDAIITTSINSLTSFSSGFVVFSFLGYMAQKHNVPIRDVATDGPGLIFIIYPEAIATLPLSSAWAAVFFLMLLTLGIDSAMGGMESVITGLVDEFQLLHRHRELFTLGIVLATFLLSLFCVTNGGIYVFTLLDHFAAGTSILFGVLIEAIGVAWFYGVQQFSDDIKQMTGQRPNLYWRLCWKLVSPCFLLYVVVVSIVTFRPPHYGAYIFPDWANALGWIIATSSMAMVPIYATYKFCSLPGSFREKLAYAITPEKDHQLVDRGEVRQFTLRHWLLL
Chain of Monoamine transporters; serotonin & dopamine (Rattus norvegicus) (P31652 whole entry, looked up): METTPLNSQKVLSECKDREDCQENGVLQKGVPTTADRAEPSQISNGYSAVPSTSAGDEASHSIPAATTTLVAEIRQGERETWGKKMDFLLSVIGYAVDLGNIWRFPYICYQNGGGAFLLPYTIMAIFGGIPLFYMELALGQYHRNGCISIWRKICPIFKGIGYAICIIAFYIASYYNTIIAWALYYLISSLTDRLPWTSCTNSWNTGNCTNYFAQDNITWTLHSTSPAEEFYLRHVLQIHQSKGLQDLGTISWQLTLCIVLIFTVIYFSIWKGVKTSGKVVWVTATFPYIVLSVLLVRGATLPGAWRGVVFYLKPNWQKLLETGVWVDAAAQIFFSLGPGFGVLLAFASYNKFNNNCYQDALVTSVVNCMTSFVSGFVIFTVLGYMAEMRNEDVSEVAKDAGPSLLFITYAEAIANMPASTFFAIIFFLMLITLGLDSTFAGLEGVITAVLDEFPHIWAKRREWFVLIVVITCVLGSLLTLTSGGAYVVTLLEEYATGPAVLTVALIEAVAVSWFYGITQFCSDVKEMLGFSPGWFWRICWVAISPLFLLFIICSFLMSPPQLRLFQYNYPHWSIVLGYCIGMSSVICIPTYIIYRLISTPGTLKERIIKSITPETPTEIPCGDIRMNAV
For assay [4], the target named is Sodium-dependent dopamine transporter (Rattus norvegicus, UniProt P23977). Description: In vitro inhibitory activity against radioligand [3H]-[…] binding to dopamine transporter (DAT) in rat striatal tissue. Format: tissue-based, Striatum.
Chain of Sodium-dependent dopamine transporter (P23977 whole entry): as the sequence (P23977 whole entry, looked up) above
Assay [5] deals with Sodium-dependent serotonin transporter (Rattus norvegicus, UniProt P31652). The experiment in a line: In vitro inhibitory activity against radioligand [3H]paroxetine binding to serotonin transporter (5-HTT) in rat midbrain tissue. It counts as tissue-based.
Chain of Sodium-dependent serotonin transporter (P31652 whole entry): as the sequence (P31652 whole entry, looked up) above

Molecules are shown by their SMILES.

Chain of Norepinephrine transporter (Q9WTR4 whole entry): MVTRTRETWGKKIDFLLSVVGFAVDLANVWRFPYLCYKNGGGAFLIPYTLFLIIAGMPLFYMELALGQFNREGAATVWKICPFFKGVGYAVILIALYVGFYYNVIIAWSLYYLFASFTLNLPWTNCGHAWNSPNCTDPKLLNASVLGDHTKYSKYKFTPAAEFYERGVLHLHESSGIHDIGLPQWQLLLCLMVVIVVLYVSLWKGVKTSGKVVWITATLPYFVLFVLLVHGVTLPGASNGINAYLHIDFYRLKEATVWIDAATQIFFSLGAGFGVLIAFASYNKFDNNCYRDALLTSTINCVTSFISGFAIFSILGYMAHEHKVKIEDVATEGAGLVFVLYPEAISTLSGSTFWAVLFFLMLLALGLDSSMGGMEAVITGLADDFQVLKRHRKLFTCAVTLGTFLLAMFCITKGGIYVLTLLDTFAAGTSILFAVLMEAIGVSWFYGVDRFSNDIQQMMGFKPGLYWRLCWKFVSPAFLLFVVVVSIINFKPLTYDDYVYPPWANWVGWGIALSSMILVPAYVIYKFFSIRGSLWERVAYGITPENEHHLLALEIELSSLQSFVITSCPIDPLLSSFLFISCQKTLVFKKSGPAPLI

Broadly, the IC50 is the concentration that gives 50% inhibition. Read a high IC50 as weaker potency. Consider `CCc1ccc(C2CC3CC[C@@H](N3)C2C(=O)OC)cc1I` (some centres undefined), for which the concentration for half-maximal inhibition (IC50) in assay [1] amounted to 148 nM; in assay [4], 329 nM. The Ratio in assay [2] was 40; in assay [3], 87.
With `CCc1ccc(C2CC3CC[C@@H](N3)C2C(=O)OC)cc1` (some centres undefined), the Ratio came out at 2.5 in assay [2] and 0.2 in assay [3].
In assay [1], `CCc1ccc(C2CC3CC[C@H](C2C(=O)OC)N3C)cc1` (some centres undefined) yielded an IC50 of 39 nM. The Ratio in assay [2] was determined as 71; in assay [3], 0.52.
Take `COC(=O)C1C(c2cccc(I)c2)CC2CC[C@H]1N2C` (some centres undefined): the IC50 in assay [5] is 38.8 nM; in assay [1], 1590 nM; in assay [4] it was 26 nM. For the same compound, the Ratio in assay [2] worked out at 61; in assay [3], 1.5.
Taken in the same sequence, the figures for `COC(=O)C1C(c2ccc(Cl)cc2)CC2CC[C@H]1N2` (some centres undefined) were 5.45 nM, 4.13 nM, 0.62 nM, 7 and 9.
